Laboratory results from patent publication US20260176320A1, “MODULATORS OF G-PROTEIN COUPLED RECEPTORS” (priority 2018, published 2026).
Where two headings read alike, the source gives them in different places.

Experiments:
Assay type in all cases: cell-based
GLP-1R [1] = biological target: T1, GLP-1R (Homo sapiens, UniProt P43220); test: PathHunter β-arrestin assay
Outline: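 Cells (5,000/well) plated overnight, then exposed to a 22-point 2-fold agonist dilution series in medium with 0.2% BSA for 90 min at 37 °C, 5% CO2. PathHunter detection reagent added; after 3 h at room temperature in the dark, luminescence read.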

GLP-1R [2] = biological target: T1, GLP-1R; test: HitHunter cAMP assay (GLP-1R); settings: cAMP; for Emax: read-out: (Emax) GLP-1R
Outline: (§1)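 Suspension cells (10,000/well) in HBSS with 10 mM HEPES, 625 μM IBMX, 0.2% BSA exposed to 22-point 2-fold agonist series in duplicate for 30 min at room temperature. cAMP measured by antibody immunocompetition with overnight development, luminescence read-out.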

GIP-R = biological target: T2, GIP-R (Homo sapiens, UniProt P48546); test: HitHunter cAMP assay (GIP-R); settings: cAMP; for Emax: read-out: (Emax) GIP-R
T2 sequence (P48546 22-466): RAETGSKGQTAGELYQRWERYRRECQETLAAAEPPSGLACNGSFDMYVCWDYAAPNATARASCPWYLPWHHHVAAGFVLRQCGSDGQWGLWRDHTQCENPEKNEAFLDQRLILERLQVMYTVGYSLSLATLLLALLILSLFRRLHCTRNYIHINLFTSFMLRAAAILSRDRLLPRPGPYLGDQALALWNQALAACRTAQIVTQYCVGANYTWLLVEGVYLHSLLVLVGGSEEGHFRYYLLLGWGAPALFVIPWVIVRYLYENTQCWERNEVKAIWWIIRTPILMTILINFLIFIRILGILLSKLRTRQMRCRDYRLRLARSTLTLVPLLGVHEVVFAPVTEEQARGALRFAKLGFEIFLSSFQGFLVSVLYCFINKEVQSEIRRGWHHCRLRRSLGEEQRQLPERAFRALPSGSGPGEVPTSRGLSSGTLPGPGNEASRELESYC
Outline: as §1

[3] = PathHunter β-arrestin assay, read-out: β-arrestin activity EC50
[4] = Table 3A, read-out: EC50 GLP-1R/nM
[5] = Table 3A, read-out: EC50 GIP-R/nM

T1 sequence (P43220 24-463): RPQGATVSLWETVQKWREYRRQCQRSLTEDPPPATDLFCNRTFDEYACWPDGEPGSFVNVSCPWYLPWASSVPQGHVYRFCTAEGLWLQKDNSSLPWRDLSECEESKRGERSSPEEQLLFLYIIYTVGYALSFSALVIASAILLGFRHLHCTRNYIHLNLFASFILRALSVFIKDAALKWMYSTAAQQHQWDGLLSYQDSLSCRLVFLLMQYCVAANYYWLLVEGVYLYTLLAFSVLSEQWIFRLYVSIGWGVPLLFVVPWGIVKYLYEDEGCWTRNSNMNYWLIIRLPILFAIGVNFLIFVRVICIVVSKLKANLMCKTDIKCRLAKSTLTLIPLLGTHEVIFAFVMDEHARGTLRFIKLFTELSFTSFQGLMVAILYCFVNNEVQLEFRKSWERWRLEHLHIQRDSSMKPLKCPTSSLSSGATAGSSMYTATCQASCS

Row | Compound | EC50 (GLP-1R [1]) | EC50 (GLP-1R [2]; EC50 GLP-1R/nM, Table 3) | EC50 (GLP-1R [2]; EC50 GLP-1R/nM, Table 3A) | Emax (GLP-1R [2]; Table 3) | Emax (GLP-1R [2]; Table 3A) | EC50 (GIP-R; EC50 GIP-R/nM, Table 3) | EC50 (GIP-R; EC50 GIP-R/nM, Table 3A) | Emax (GIP-R; Table 3) | Emax (GIP-R; Table 3A) | EC50 (GLP-1R [1]; [3]) | EC50 (GLP-1R [2]; Table 3, read-out: EC50 GLP-1R/nM) | EC50 (GLP-1R [2]; [4]) | EC50 (GIP-R; Table 3, read-out: EC50 GIP-R/nM) | EC50 (GIP-R; [5])
1 | CC[C@H](C)[C@H](NC(=O)[C@H](CO)NC(=O)[C@H](Cc1ccc(O)cc1)NC(=O)[C@H](CC(=O)O)NC(=O)[C@H](CO)NC(=O)[C@@H](NC(=O)[C@H](Cc1ccccc1)NC(=O)[C@@H](NC(=O)CNC(=O)[C@H](CCC(=O)O)NC(=O)C(C)(C)C(=O)NCCCCN1C(=O)c2ccccc2C1=O)[C@@H](C)O)[C@@H](C)O)C(=O)N[C@@H](Cc1ccc(O)cc1)C(=O)N[C@@H](CC(C)C)C(=O)N[C@@H](CC(=O)O)C(=O)N[C@@H](CCCCN)C(=O)N[C@@H](CCC(N)=O)C(=O)N[C@@H](C)C(=O)N[C@@H](C)C(=O)NC(C)(C)C(=O)N[C@@H](CCC(=O)O)C(=O)N[C@@H](Cc1ccccc1)C(=O)N[C@H](C(=O)N[C@@H](CC(N)=O)C(=O)N[C@@H](Cc1c[nH]c2ccccc12)C(=O)N[C@@H](CC(C)C)C(=O)N[C@@H](CC(C)C)C(=O)N[C@@H](C)C(=O)NCC(=O)NCC(=O)N1CCC[C@H]1C(=O)N[C@@H](CO)C(=O)N[C@@H](CO)C(=O)NCC(=O)N[C@@H](C)C(=O)N1CCC[C@H]1C(=O)N1CCC[C@H]1C(=O)N1CCC[C@H]1C(=O)N[C@@H](CO)C(=O)N[C@@H](CCCCN)C(N)=O)C(C)C [Compound 141] | > 1 µM | 1 to 10 nM | 1 to 10 nM | 98 to 100% | 98 to 100% | 10 to 100 nM | 10 to 100 nM | 46 to 50% | 46 to 50% | – | – | – | – | –
2 | CCCCCCCCCCCCCCCC(=O)N[C@@H](CCC(=O)NCCCC[C@H](NC(=O)[C@H](CO)NC(=O)[C@@H]1CCCN1C(=O)[C@@H]1CCCN1C(=O)[C@@H]1CCCN1C(=O)[C@H](C)NC(=O)CNC(=O)[C@H](CO)NC(=O)[C@H](CO)NC(=O)[C@@H]1CCCN1C(=O)CNC(=O)CNC(=O)[C@H](C)NC(=O)[C@H](CC(C)C)NC(=O)[C@H](CC(C)C)NC(=O)[C@H](Cc1c[nH]c2ccccc12)NC(=O)[C@H](CC(N)=O)NC(=O)[C@@H](NC(=O)[C@H](Cc1ccccc1)NC(=O)[C@H](CCC(=O)O)NC(=O)C(C)(C)NC(=O)[C@H](C)NC(=O)[C@H](C)NC(=O)[C@H](CCC(N)=O)NC(=O)[C@H](CCCCN)NC(=O)[C@H](CC(=O)O)NC(=O)[C@H](CC(C)C)NC(=O)[C@H](Cc1ccc(O)cc1)NC(=O)[C@@H](NC(=O)[C@H](CO)NC(=O)[C@H](Cc1ccc(O)cc1)NC(=O)[C@H](CC(=O)O)NC(=O)[C@H](CO)NC(=O)[C@@H](NC(=O)[C@H](Cc1ccccc1)NC(=O)[C@@H](NC(=O)CNC(=O)[C@H](CCC(=O)O)NC(=O)CSCC(=O)NCCN1CCc2ccccc2C1=O)[C@@H](C)O)[C@@H](C)O)[C@@H](C)CC)C(C)C)C(N)=O)C(=O)O [Compound 13] | > 1 µM | 1 to 10 nM | 1 to 10 nM | 69% | 69% | 1 to 10 nM | 10 to 100 nM | 25% | 25% | – | – | – | – | –
3 | CCCCCCCCCCCCCCCC(=O)N[C@@H](CCC(=O)NCCCC[C@H](NC(=O)[C@H](CO)NC(=O)[C@@H]1CCCN1C(=O)[C@@H]1CCCN1C(=O)[C@@H]1CCCN1C(=O)[C@H](C)NC(=O)CNC(=O)[C@H](CO)NC(=O)[C@H](CO)NC(=O)[C@@H]1CCCN1C(=O)CNC(=O)CNC(=O)[C@H](C)NC(=O)[C@H](CC(C)C)NC(=O)[C@H](CC(C)C)NC(=O)[C@H](Cc1c[nH]c2ccccc12)NC(=O)[C@H](CC(N)=O)NC(=O)[C@@H](NC(=O)[C@H](Cc1ccccc1)NC(=O)[C@H](CCC(=O)O)NC(=O)C(C)(C)NC(=O)[C@H](C)NC(=O)[C@H](C)NC(=O)[C@H](CCC(N)=O)NC(=O)[C@H](CCCCN)NC(=O)[C@H](CC(=O)O)NC(=O)[C@H](CC(C)C)NC(=O)[C@H](Cc1ccc(O)cc1)NC(=O)[C@@H](NC(=O)[C@H](CO)NC(=O)[C@H](Cc1ccc(O)cc1)NC(=O)[C@H](CC(=O)O)NC(=O)[C@H](CO)NC(=O)[C@@H](NC(=O)[C@H](Cc1ccccc1)NC(=O)[C@@H](NC(=O)CNC(=O)[C@H](CCC(=O)O)NC(=O)CSCC(=O)N(C)CCN1C(=O)CSC1=O)[C@@H](C)O)[C@@H](C)O)[C@@H](C)CC)C(C)C)C(N)=O)C(=O)O [Compound 93] | > 1 µM | 0.1 to 1 nM | 0.1 to 1 nM | 99% | 99% | 1 to 10 nM | 1 to 10 nM | 73% | 73% | – | – | – | – | –
4 | CCCCCCCCCCCCCCCC(=O)N[C@@H](CCC(=O)NCCCC[C@H](NC(=O)[C@H](CO)NC(=O)[C@@H]1CCCN1C(=O)[C@@H]1CCCN1C(=O)[C@@H]1CCCN1C(=O)[C@H](C)NC(=O)CNC(=O)[C@H](CO)NC(=O)[C@H](CO)NC(=O)[C@@H]1CCCN1C(=O)CNC(=O)CNC(=O)[C@H](C)NC(=O)[C@H](CC(C)C)NC(=O)[C@H](CC(C)C)NC(=O)[C@H](Cc1c[nH]c2ccccc12)NC(=O)[C@H](CC(N)=O)NC(=O)[C@@H](NC(=O)[C@H](Cc1ccccc1)NC(=O)[C@H](CCC(=O)O)NC(=O)C(C)(C)NC(=O)[C@H](C)NC(=O)[C@H](C)NC(=O)[C@H](CCC(N)=O)NC(=O)[C@H](CCCCN)NC(=O)[C@H](CC(=O)O)NC(=O)[C@H](CC(C)C)NC(=O)[C@H](Cc1ccc(O)cc1)NC(=O)[C@@H](NC(=O)[C@H](CO)NC(=O)[C@H](Cc1ccc(O)cc1)NC(=O)[C@H](CC(=O)O)NC(=O)[C@H](CO)NC(=O)[C@@H](NC(=O)[C@H](Cc1ccccc1)NC(=O)[C@@H](NC(=O)CNC(=O)[C@H](CCC(=O)O)NC(=O)CCCC(=O)NCCN1C(=O)CSC1=O)[C@@H](C)O)[C@@H](C)O)[C@@H](C)CC)C(C)C)C(N)=O)C(=O)O [Compound 155] | – | – | – | 102% | 102% | – | – | 80% | 80% | > 1 µM | 0.1 to 1 nM | 0.1 to 1 nM | 1 to 10 nM | 1 to 10 nM
5 | CCCCCCCCCCCCCCCC(=O)N[C@@H](CCC(=O)NCCCC[C@H](NC(=O)[C@H](CO)NC(=O)[C@@H]1CCCN1C(=O)[C@@H]1CCCN1C(=O)[C@@H]1CCCN1C(=O)[C@H](C)NC(=O)CNC(=O)[C@H](CO)NC(=O)[C@H](CO)NC(=O)[C@@H]1CCCN1C(=O)CNC(=O)CNC(=O)[C@H](C)NC(=O)[C@H](CC(C)C)NC(=O)[C@H](CC(C)C)NC(=O)[C@H](Cc1c[nH]c2ccccc12)NC(=O)[C@H](CC(N)=O)NC(=O)[C@@H](NC(=O)[C@H](Cc1ccccc1)NC(=O)[C@H](CCC(=O)O)NC(=O)C(C)(C)NC(=O)[C@H](C)NC(=O)[C@H](C)NC(=O)[C@H](CCC(N)=O)NC(=O)[C@H](CCCCN)NC(=O)[C@H](CC(=O)O)NC(=O)[C@H](CC(C)C)NC(=O)[C@H](Cc1ccc(O)cc1)NC(=O)[C@@H](NC(=O)[C@H](CO)NC(=O)[C@H](Cc1ccc(O)cc1)NC(=O)[C@H](CC(=O)O)NC(=O)[C@H](CO)NC(=O)[C@@H](NC(=O)[C@H](Cc1ccccc1)NC(=O)[C@@H](NC(=O)CNC(=O)[C@H](CCC(=O)O)NC(=O)[C@H](C)NC(=O)CCN1CCCCC1=O)[C@@H](C)O)[C@@H](C)O)[C@@H](C)CC)C(C)C)C(N)=O)C(=O)O [Compound 212] | – | – | – | – | 90% | – | – | – | 50% | 0.01 to 1 µM | – | < 0.1 nM | – | 1 to 10 nM
6 | CCCCCCCCCCCCCCCC(=O)N[C@@H](CCC(=O)NCCCC[C@H](NC(=O)[C@H](CO)NC(=O)[C@@H]1CCCN1C(=O)[C@@H]1CCCN1C(=O)[C@@H]1CCCN1C(=O)[C@H](C)NC(=O)CNC(=O)[C@H](CO)NC(=O)[C@H](CO)NC(=O)[C@@H]1CCCN1C(=O)CNC(=O)CNC(=O)[C@H](C)NC(=O)[C@H](CC(C)C)NC(=O)[C@H](CC(C)C)NC(=O)[C@H](Cc1c[nH]c2ccccc12)NC(=O)[C@H](CC(N)=O)NC(=O)[C@@H](NC(=O)[C@H](Cc1ccccc1)NC(=O)[C@H](CCC(=O)O)NC(=O)C(C)(C)NC(=O)[C@H](C)NC(=O)[C@H](C)NC(=O)[C@H](CCC(N)=O)NC(=O)[C@H](CCCCN)NC(=O)[C@H](CC(=O)O)NC(=O)[C@H](CC(C)C)NC(=O)[C@H](Cc1ccc(O)cc1)NC(=O)[C@@H](NC(=O)[C@H](CO)NC(=O)[C@H](Cc1ccc(O)cc1)NC(=O)[C@H](CC(=O)O)NC(=O)[C@H](CO)NC(=O)[C@@H](NC(=O)[C@H](Cc1ccccc1)NC(=O)[C@@H](NC(=O)CNC(=O)[C@H](CCC(=O)O)NC(=O)CCNC(=O)CCN1CCCC1=O)[C@@H](C)O)[C@@H](C)O)[C@@H](C)CC)C(C)C)C(N)=O)C(=O)O [Compound 265] | – | – | – | – | 100% | – | – | – | 80% | < 0.01 µM | – | < 0.1 nM | – | 0.1 to 1 nM
